Assay results taken from ChEMBL document CHEMBL1157230, “Bacterial biofilm inhibitors from Diospyros dendo” (2006).

Each compound was assayed on Pseudomonas aeruginosa (assay: Antibacterial activity against Pseudomonas aeruginosa PAO1 assessed as inhibition of biofilm formation at 10 ug/ml after 24 hrs). Conditions: PAO1, 24 h.
Assay type: functional

| SMILES | inhibition at 10 µg/mL [%] |
| --- | --- |
| C[C@H]1[C@H](C)CC[C@]2(C(=O)O)CC[C@]3(C)C(=CC[C@@H]4[C@@]5(C)C[C@@H](O)[C@H](OC(=O)/C=C\c6ccc(O)cc6)C(C)(C)[C@@H]5CC[C@]43C)[C@H]12 | 32 |
| COc1cc(/C=C/C(=O)O[C@H]2[C@H](O)C[C@]3(C)[C@H]4CC=C5[C@@H]6[C@@H](C)[C@H](C)CC[C@]6(C(=O)O)CC[C@@]5(C)[C@]4(C)CC[C@H]3C2(C)C)ccc1O | 48 |
| C[C@@H]1[C@H]2C3=CC[C@@H]4[C@@]5(C)CC[C@H](OC(=O)/C=C\c6ccc(O)cc6)C(C)(C)[C@@H]5CC[C@@]4(C)[C@]3(C)CC[C@@]2(C(=O)O)CC[C@]1(C)O | 62 |
| C[C@H]1[C@H](C)CC[C@]2(C(=O)O)CC[C@]3(C)C(=CC[C@@H]4[C@@]5(C)C[C@@H](O)[C@H](OC(=O)/C=C/c6ccc(O)cc6)C(C)(C)[C@@H]5CC[C@]43C)[C@H]12 | 35 |
| C[C@H]1[C@H](C)CC[C@]2(C(=O)O)CC[C@]3(C)C(=CC[C@@H]4[C@@]5(C)CC[C@H](O)C(C)(C)[C@@H]5CC[C@]43C)[C@H]12 [URSOLIC ACID] | 35 |
